Drawing on patent US11446287B2, “Compounds and methods for EP300 or CBP modulation and indications therefor” (Opna Immuno-Oncology SA, priority 2019, dated 2022), this text covers IC50 for 13 compounds.

SMILES strings stand for the structures.

This experiment concerns the target T1, Recombinant human EP300 containing the bromodomain (EP300-BD (1040-1161)) (Homo sapiens, UniProt Q09472).
T1 construct: Recombinant human EP300 bromodomain (EP300-BD (1040-1161)); made in house; host or cells: E. coli BL21-CodonPlus (DE3), modified pET vector
T1 sequence (Q09472 1040-1161): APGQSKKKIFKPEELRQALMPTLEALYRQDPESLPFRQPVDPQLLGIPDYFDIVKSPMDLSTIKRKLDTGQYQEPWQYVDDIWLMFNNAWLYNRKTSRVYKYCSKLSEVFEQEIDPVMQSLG
The experiment can be described thus: EP300 Alphascreen binding assay. In a few lines: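 Displacement of a biotinylated acetyl-K56 histone H3 peptide from the N-His bromodomain construct (1040-1161) measured by AlphaScreen proximity, beads at 7.5 μg/ml final, read 60 min after addition. Protein, peptide and compound first incubated 1 h at room temperature, pH 7.5 HEPES buffer; IC50 by four-parameter logistic fit.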

`Cc1noc(C)c1-c1cnc2c(c1)c(-c1ccc(C(=O)O)cc1OC(F)(F)F)cn2CC1CC(F)(F)C1` [P-0157, 4-(1-((3,3-difluorocyclobutyl)methyl)-5-(3,5-dimethylisoxazol-4-yl)-1H-pyrrolo[2,3-b]pyridin-3-yl)-3-(trifluoromethoxy)benzoic acid]: the IC50 lay within 0.1 to 1000 nM. For `Cc1noc(C)c1-c1cnc2c(c1)c(-c1ccc(C(=O)O)cc1OC(F)(F)F)cn2-c1ccccn1` [P-0158, 4-(5-(3,5-dimethylisoxazol-4-yl)-1-(pyridin-2-yl)-1H-pyrrolo[2,3-b]pyridin-3-yl)-3-(trifluoromethoxy)benzoic acid], the IC50 lay within 0.1 to 1000 nM.

For the compound `Cc1noc(C)c1-c1cnc2c(Cc3ccccn3)cn(-c3ccc(C(=O)O)cc3OC(F)(F)F)c2c1` [P-0159, 4-(6-(3,5-dimethylisoxazol-4-yl)-3-(pyridin-2-ylmethyl)-1H-pyrrolo[3,2-b]pyridin-1-yl)-3-(trifluoromethoxy)benzoic acid], the IC50 is 0.1 to 1000 nM.

For the compound `Cc1noc(C)c1-c1cnc2c(-c3cnn(C)c3)c(C(F)(F)F)n([C@@H](C)c3ccccn3)c2c1` [P-0160, (S)-3,5-dimethyl-4-(3-(1-methyl-1H-pyrazol-4-yl)-1-(1-(pyridin-2-yl)ethyl)-2-(trifluoromethyl)-1H-pyrrolo[3,2-b]pyridin-6-yl)isoxazole], the IC50 was in the range of 0.1 to 1000 nM.

For the compound `Cc1noc(C)c1-c1cnc2c(-c3cccc(CC(=O)O)c3)c(C(F)(F)F)n([C@@H](C)c3ccccn3)c2c1` [P-0161, (S)-2-(3-(6-(3,5-dimethylisoxazol-4-yl)-1-(1-(pyridin-2-yl)ethyl)-2-(trifluoromethyl)-1H-pyrrolo[3,2-b]pyridin-3-yl)phenyl)acetic acid], the IC50 was 0.1 to 1000 nM. For `Cc1noc(C)c1-c1cnc2c(-c3cccc(C(=O)O)c3)c(C(F)(F)F)n([C@@H](C)c3ccccn3)c2c1` [P-0162, (S)-3-(6-(3,5-dimethylisoxazol-4-yl)-1-(1-(pyridin-2-yl)ethyl)-2-(trifluoromethyl)-1H-pyrrolo[3,2-b]pyridin-3-yl)benzoic acid], the IC50 was in the range of 0.1 to 1000 nM.

On to `Cc1noc(C)c1-c1cnc2c(C(O)(C3CC3)C3CC3)cn(-c3ccc(C(=O)O)cc3OC(F)(F)F)c2c1` [P-0163, 4-(3-(dicyclopropyl(hydroxy)methyl)-6-(3,5-dimethylisoxazol-4-yl)-1H-pyrrolo[3,2-b]pyridin-1-yl)-3-(trifluoromethoxy)benzoic acid], for which the IC50 was in the range of 0.1 to 1000 nM.

`Cc1noc(C)c1-c1cnc2c(-c3cc(C(=O)O)ccc3Cl)cn(C(C)(c3ccccn3)c3ccccn3)c2c1` [P-0164, 4-chloro-3-(1-(1,1-di(pyridin-2-yl)ethyl)-6-(3,5-dimethylisoxazol-4-yl)-1H-pyrrolo[3,2-b]pyridin-3-yl)benzoic acid]: the IC50 is 0.1 to 1000 nM. As for `CCOc1cc(C(=O)O)cc(OCC)c1-n1cc(C(O)(C2CC2)C2CC2)c2ncc(-c3c(C)noc3C)cc21` [P-0165, 4-(3-(dicyclopropyl(hydroxy)methyl)-6-(3,5-dimethylisoxazol-4-yl)-1H-pyrrolo[3,2-b]pyridin-1-yl)-3,5-diethoxybenzoic acid], the IC50 was 0.1 to 1000 nM.

In the case of `Cc1noc(C)c1-c1cnc2c(-c3cc(C(=O)O)ccc3C#N)cn(C(C)(c3ccccn3)c3ccccn3)c2c1` [P-0166, 4-cyano-3-(1-(1,1-di(pyridin-2-yl)ethyl)-6-(3,5-dimethylisoxazol-4-yl)-1H-pyrrolo[3,2-b]pyridin-3-yl)benzoic acid], the IC50 lay in the range of 0.1 to 1000 nM. With `C#Cc1ccccc1-c1cn(C(C)(c2ccccn2)c2ccccn2)c2cc(-c3c(C)noc3C)cnc12` [P-0167, 4-(1-(1,1-di(pyridin-2-yl)ethyl)-3-(2-ethynylphenyl)-1H-pyrrolo[3,2-b]pyridin-6-yl)-3,5-dimethylisoxazole], the IC50 lay in the range of 0.1 to 1000 nM.

Consider `CCOc1cc(C(=O)O)cc(OCC)c1-n1cc(-c2ccccc2)c2ncc(-c3c(C)noc3C)cc21` [P-0168, 4-(6-(3,5-dimethylisoxazol-4-yl)-3-phenyl-1H-pyrrolo[3,2-b]pyridin-1-yl)-3,5-diethoxybenzoic acid], for which the IC50 is 0.1 to 1000 nM.

For the compound `Cc1noc(C)c1-c1cnc2c(-c3ccccc3C#N)cn(C(C)(c3ccccn3)c3ccccn3)c2c1` [P-0169, 2-(1-(1,1-di(pyridin-2-yl)ethyl)-6-(3,5-dimethylisoxazol-4-yl)-1H-pyrrolo[3,2-b]pyridin-3-yl)benzonitrile], the IC50 is 0.1 to 1000 nM.
